According to patent US9771359B1, “Substituted oxazole- and thiazole-based carboxamide and urea derivatives as vanilloid receptor ligands II” (MEDIFRON DBT INC., priority 2014, dated 2017):

Molecular target: vanilloid receptor 1 (VR1/TRPV1) (Homo sapiens (Human), UniProt Q8NER1)
Test: FLIPR assay, Ca2+ influx in CHO K1 cells transfected with the human VR1 gene
Assay type: cell-based
Conditions: for compound-alone effect on Ca2+ influx (agonist / partial agonist): compound 5 μM, % activation compared with control capsaicin 10 μM; for Ki: displacement of capsaicin 100 nM, Ki from IC50 by Cheng-Prusoff equation, read-out: (f) Ki (human) [nM] Cap
Method: Furthermore, preference may be given to compounds according to the first aspect of the invention that cause a 50% displacement of capsaicin, which is present at a concentration of 100 nM, in a FLIPR assay with CHO K1 cells which were transfected with the human VR1 gene at a concentration of less than 2 000 nM, preferably less than 1 000 nM, particularly preferably less than 300 nM, most particularly preferably less than 100 nM, even more preferably less than 75 nM, additionally preferably less than 50 nM, most preferably less than 10 nM. In the process, the Ca^2+ influx is quantified in the FLIPR assay with the aid of a Ca^2+-sensitive dye (type Fluo-4, Molecular Probes Europe BV, Leiden, the Netherlands) in a fluorescent imaging plate reader (FLIPR, Molecular Devices, Sunnyvale, USA), as described hereinafter.
The FLIPR protocol consists of 2 substance additions during a kinetic measurement. First the compounds to be tested (5 μM) are pipetted onto the cells and the Ca^2+ influx is determined in comparison to the control (capsaicin 10 μM), providing the result as % activation and representing the compound-alone effect (calculation at peak signal related to baseline). […] After 5 min incubation, the Ca^2+ influx is related to an injection of 100 nM of capsaicin and thereby the antagonistic effect of the test compounds detected.
Desensitising agonists and antagonists lead to suppression of the Ca^2+ influx. The % inhibition is calculated compared to the maximum achievable inhibition with 10 μM of capsaicin. Triple analyses (n=3) are carried out and repeated in at least 3 independent experiments.
Starting from the percentage displacement caused by different concentrations of the compounds to be tested of general formula I, IC50 inhibitory concentrations which cause a 50-% displacement of capsaicin were calculated. Ki values for the test substances were obtained by conversion by means of the Cheng-Prusoff equation (Cheng, Prusoff; Biochem. Pharmacol. 22, 3099-3108, 1973).
Chinese hamster ovary cells (CHO K1 cells, European Collection of Cell Cultures (ECACC) United Kingdom) are stably transfected with the VR1 gene. For functional testing, these cells are plated out on poly-D-lysine-coated black 96-well plates having a clear base (BD Biosciences, Heidelberg, Germany) at a density of 25,000 cells/well. The cells are incubated overnight at 37° C. and 5% CO2 in a culture medium (Ham's F12 nutrient mixture, 10% by volume of FCS (foetal calf serum), 18 μg/ml of L-proline). The next day the cells are incubated with Fluo-4 (Fluo-4 2 μM, 0.01% by volume of Pluronic F127, Molecular Probes in HBSS (Hank's buffered saline solution), Gibco Invitrogen GmbH, Karlsruhe, Germany) for 30 min at 37° C. Subsequently, the plates are washed three times with HBSS buffer and after further incubation for 15 min at RT used for Ca^2+ measurement in a FLIPR assay. The Ca^2+-dependent fluorescence is measured before and after the addition of the substances to be tested (λex wavelength=488 nm, λem=540 nm). Quantification is carried out by measuring the highest fluorescence intensity (FC, fluorescence counts) over time.

Chain of vanilloid receptor 1 (VR1/TRPV1) (Q8NER1 whole entry): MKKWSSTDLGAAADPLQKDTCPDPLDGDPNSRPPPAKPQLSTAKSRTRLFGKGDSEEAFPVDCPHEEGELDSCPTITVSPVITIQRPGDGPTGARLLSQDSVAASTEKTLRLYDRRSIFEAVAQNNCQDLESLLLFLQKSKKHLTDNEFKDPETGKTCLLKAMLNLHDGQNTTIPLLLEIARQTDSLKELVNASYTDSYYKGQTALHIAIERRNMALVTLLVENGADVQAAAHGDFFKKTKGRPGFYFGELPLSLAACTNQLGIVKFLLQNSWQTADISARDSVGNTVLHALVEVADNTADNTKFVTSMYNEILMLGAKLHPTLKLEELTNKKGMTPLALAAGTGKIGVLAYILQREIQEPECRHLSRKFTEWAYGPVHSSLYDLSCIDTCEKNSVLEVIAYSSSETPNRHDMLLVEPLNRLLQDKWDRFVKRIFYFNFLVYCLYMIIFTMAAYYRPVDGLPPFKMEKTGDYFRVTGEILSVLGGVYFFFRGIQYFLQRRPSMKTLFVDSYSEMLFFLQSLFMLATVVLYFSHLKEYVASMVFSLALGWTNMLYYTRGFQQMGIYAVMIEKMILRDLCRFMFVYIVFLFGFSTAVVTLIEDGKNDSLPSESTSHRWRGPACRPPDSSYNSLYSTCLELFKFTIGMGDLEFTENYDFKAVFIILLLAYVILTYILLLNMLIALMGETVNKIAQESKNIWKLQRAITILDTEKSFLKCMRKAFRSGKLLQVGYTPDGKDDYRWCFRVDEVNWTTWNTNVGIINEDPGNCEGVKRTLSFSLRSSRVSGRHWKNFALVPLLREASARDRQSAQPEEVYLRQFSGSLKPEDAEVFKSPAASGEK

Ki	SMILES	compound-alone effect on Ca2+ influx (agonist / partial agonist)
–	CC(C)(C)c1nc(-c2cccc(Cl)c2)c(CNC(=O)Nc2cccc3ncccc23)s1 [EX-53, 1-((2-(tert-butyl)-4-(3-chlorophenyl)thiazol-5-yl)methyl)-3-(quinolin-5-yl)urea]	AG (a Ca^2+ influx of >60% relates to a pure agonist (AG))
5.9 nM	CC(C)(C)c1nc(-c2cccc(Cl)c2)c(CNC(=O)Nc2ccc3c(c2)OCCO3)s1 [EX-54, 1-((2-(tert-butyl)-4-(3-chlorophenyl)thiazol-5-yl)methyl)-3-(2,3-dihydrobenzo[b][1,4]dioxin-6-yl)urea]	–
12.3 nM	CC(C)(C)c1nc(-c2cccc(Cl)c2)c(CNC(=O)Nc2ccc3c(c2)CCC3)s1 [EX-55, 1-((2-(tert-butyl)-4-(3-chlorophenyl)thiazol-5-yl)methyl)-3-(2,3-dihydro-1H-inden-5-yl)urea]	–
0.1 nM	CC(C)(C)c1nc(-c2cccc(Cl)c2)c(CNC(=O)Nc2cccc3cnccc23)s1 [EX-56, 1-((2-(tert-butyl)-4-(3-chlorophenyl)thiazol-5-yl)methyl)-3-(isoquinolin-5-yl)urea]	–
6.6 nM	CC(C)(C)c1nc(-c2cccc(Cl)c2)c(CNC(=O)Nc2ccc(CNS(C)(=O)=O)c(F)c2)s1 [EX-57, N-(4-(3-((2-(tert-butyl)-4-(3-chlorophenyl)thiazol-5-yl)methyl)ureido)-2-fluorobenzyl)methanesulfonamide]	–
2.3 nM	Cc1cccc(-c2nc(C(C)(C)C)sc2CNC(=O)Nc2ccc(CNS(C)(=O)=O)c(F)c2)c1 [EX-58, N-(4-(3-((2-(tert-butyl)-4-(m-tolyl)thiazol-5-yl)methyl)ureido)-2-fluorobenzyl)methanesulfonamide]	–
1.1 nM	CC(C)(C)c1nc(-c2cccc(Cl)c2)c(CNC(=O)Nc2ccc(CO)c(F)c2)s1 [EX-59, 1-((2-(tert-butyl)-4-(3-chlorophenyl)thiazol-5-yl)methyl)-3-(3-fluoro-4-(hydroxymethyl)phenyl)urea]	pAG (A Ca^2+ influx of 10%-60% reveals a partial agonist (pAG))
3.2 nM	Cc1cccc(-c2nc(C(C)(C)C)sc2CNC(=O)Nc2ccc(CO)c(F)c2)c1 [EX-60, 1-((2-(tert-butyl)-4-(m-tolyl)thiazol-5-yl)methyl)-3-(3-fluoro-4-(hydroxymethyl)phenyl)urea]	pAG (A Ca^2+ influx of 10%-60% reveals a partial agonist (pAG))
